Where two headings read alike, the source gives them in different places.
Experiments:
[1] = tested on: estrogen receptor preparations from rat prostates; assay: Competitive 3H-estradiol binding, rat prostate cytosol; settings: for RBA Rat Prostate: Table 2, 3H-estradiol as ligand; for binding affinity to estrogen receptor of rat prostates compared with rat uteri: qualitative comparison prostate ER versus uterus ER
[2] = tested on: estrogen receptor preparations from rat uteri; assay: Competitive 3H-estradiol binding, rat uterus cytosol; settings: for RBA Rat Uterus: Table 2, 3H-estradiol as ligand
hERβ [3] = settings: cited from earlier work
hERβ [4] = assay: Relative binding affinity to hERβ (Kuiper et al.); parameters: species or system human; settings: quotient of RBA hERβ / hERα
Description: In this case, it is assumed that ERβ predominates in the rat prostates over ERα, and ERα predominates in rat uteri over ERβ.

[5] = tested on: hypophysectomized juvenile rats; assay: Ovary study, ovary weight in hypophysectomized juvenile rats; type: in vivo, rat; settings: 0.5 mg/animal/day s.c. over 4 days, compared with estradiol 0.1 mg/animal/day
Procedure: (§1) The substances were tested in vivo on hypophysectomized juvenile rats. In a modification of this operative method, a GnRH antagonist is administered to the animals. It is examined whether the substance stimulates follicular proliferation (maturation) in the ovary. The ovary weight is the measurement parameter.
(§2) In each case, five animals (body weight 40-50 g) are assigned randomly to the treatment groups. The animals are fed as much as they want with a standard diet (altromin) in Makrolon cages in air-conditioned rooms with a lighting program (10 hours of darkness, 14 hours of light) and are given acidified tap water to drink.
(§3) In both cases, the animals are sacrificed 24 hours after the last administration, and the ovary weight is determined.

adult female rats = assay: Dissociation of action ovary/uterus and pituitary gland: ovulation and uterus weight; type: in vivo, rat
Procedure: The studies with respect to the action on uterus growth and ovulation (indirect effect by influencing the secretion of pituitary gland hormones) are performed on adult female rats (body weight of 220-250 g). The substances are subcutaneously administered four times on four consecutive days. The first administration is carried out in the metestrus. One day after the last administration, the autopsy is carried out. The number of ovocytes in the tube (effect on the ovulation) as well as the uterus weight are determined.

[6] = tested on: GnRH antagonist-treated animals; assay: Ovary study, ovary weight in GnRH antagonist (Cetrorelix)-treated juvenile rats; type: in vivo, rat
Procedure: as §1, §2, §3

[7] = Table 1, 3H-estradiol as ligand, estradiol = 100

Compound | RBA Rat Prostate [1] | binding affinity to estrogen receptor of rat prostates compared with rat uteri [1] | RBA Rat Uterus [2] | also measured
9α-(2′,2′-Difluorovinyl)-18a-homo-estra-1,3,5(10)-triene-3,16α-diol [Compound 5] | 6 | higher binding affinity to the estrogen receptor of rat prostates | 0.2 | –
C[C@]12CCC(O)CC1=CC[C@@H]1[C@@H]2CC[C@]2(C)C(O)CC[C@@H]12 (some centres unmarked) [5-Androstene-diol, reference compound] | – | – | – | hERβ RBA* (hERβ [3]): 17; Rat prost. ER(RBA) [1, 7]: 5; prost. ER/uterus ER ([1]; ratio of RBA rat prostate ER / rat uterus ER): 50; Rat uterus ER(RBA) [2, 7]: 0.1; ERβ/ERα (hERβ [4]): 3
C=C[C@]12CC[C@]3(C)C[C@H](O)C[C@H]3[C@@H]1CCc1cc(O)ccc12 [Compound 1, 9α-Vinylestra-1,3,5(10)-triene-3,16α-diol] | 100 | higher binding affinity to the estrogen receptor of rat prostates | 1.2 | increase in ovary weight [5]: comparable increase in ovary weight; effect on ovulation and uterus weight (adult female rats; s.c. on four days, up to a dose of 0.4 mg/kg of body weight): does not exert any effect
C=C[C@]12CC[C@]3(C)[C@@H](F)[C@H](O)C[C@H]3[C@@H]1CCc1cc(O)ccc12 [Compound 2, 17β-Fluoro-9α-vinyl-estra-1,3,5(10)-triene-3,16α-diol] | 200 | higher binding affinity to the estrogen receptor of rat prostates | 2 | action on ovary weight (FIG. 1) ([6]; GnRH antagonist-treated animals, 0.1 and 0.3 mg/animal/day, compared with estradiol 1 mg/animal/day): same action as the dose of 1 mg/animal/day of estradiol; action on ovary weight, low dosages (FIG. 2) ([6]; combination with Cetrorelix, 0.01, 0.03 mg/animal/day): show an ovary action and can eliminate the antagonistic effect of Cetrorelix
C[C@]12CC[C@]3(C=C(F)F)c4ccc(O)cc4CC[C@H]3[C@@H]1C[C@@H](O)C2 [Compound 4, 9α-(2′,2′-Difluorovinyl)-estra-1,3,5(10)-triene-3,16α-diol] | 4 | higher binding affinity to the estrogen receptor of rat prostates | 0.2 | –
C[C@]12CC[C@@H]3c4ccc(O)cc4CC[C@H]3[C@@H]1CC[C@@H]2O [Estradiol, reference compound] | – | – | – | ED50 of ovulation inhibition and increase in uterus weight (adult female rats; s.c. four times on four consecutive days): 0.004 mg/kg of body weight
C[C@]12CC[C@@H]3c4ccc(O)cc4CC[C@H]3[C@@H]1C[C@@H](O)[C@@H]2O [Estriol] | – | – | – | hERβ RBA* (hERβ [3]; relative binding affinity, estradiol = 100, cited from Kuiper et al.): 21

Reference: patent publication US7414043B2, “9-α-substituted estratrienes as selectively active estrogens” (priority 2002, dated 2008)
